Experimental data reported in PubChem BioAssay (NCI).
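Growth conditions: 96-well plates. Treatment: test compound, 48 hours, 5 concentrations. Analysis: linear interpolation between bracketing concentrations; unreached endpoints set to highest concentration. At the TGI there is no net growth.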

Experiments:
Test in all cases: NCI tumour cell line growth inhibition, 48 h
A498 renal = tested on: A498 renal
A549 NSCLC = tested on: A549 NSCLC
CAKI-1 renal = tested on: CAKI-1 renal
CCRF-CEM leukemia = tested on: CCRF-CEM leukemia
COLO 205 colon = tested on: COLO 205 colon
DLD-1 colon = tested on: DLD-1 colon
DMS 273 small cell lung = tested on: DMS 273 small cell lung
EKVX NSCLC = tested on: EKVX NSCLC
HCC-2998 colon = tested on: HCC-2998 colon
HCT-116 colon = tested on: HCT-116 colon
HCT-15 colon = tested on: HCT-15 colon
HL-60(TB) leukemia = tested on: HL-60(TB) leukemia
HOP-18 NSCLC = tested on: HOP-18 NSCLC
HOP-62 NSCLC = tested on: HOP-62 NSCLC
HOP-92 NSCLC = tested on: HOP-92 NSCLC
HT29 colon = tested on: HT29 colon
IGROV1 ovarian = tested on: IGROV1 ovarian
K-562 leukemia = tested on: K-562 leukemia
KM12 colon = tested on: KM12 colon
KM20L2 colon = tested on: KM20L2 colon
LOX IMVI melanoma = tested on: LOX IMVI melanoma
M19-MEL melanoma = tested on: M19-MEL melanoma
MALME-3M melanoma = tested on: MALME-3M melanoma
MCF7 breast = tested on: MCF7 breast
MOLT-4 leukemia = tested on: MOLT-4 leukemia
NCI-H226 lung = tested on: NCI-H226 lung
NCI-H23 lung = tested on: NCI-H23 lung
NCI-H460 lung = tested on: NCI-H460 lung
NCI-H522 lung = tested on: NCI-H522 lung
NCI/ADR-RES ovarian = tested on: NCI/ADR-RES ovarian
OVCAR-3 ovarian = tested on: OVCAR-3 ovarian
OVCAR-4 ovarian = tested on: OVCAR-4 ovarian
OVCAR-5 ovarian = tested on: OVCAR-5 ovarian
OVCAR-8 ovarian = tested on: OVCAR-8 ovarian
P388 leukemia = tested on: P388 leukemia
P388/ADR leukemia = tested on: P388/ADR leukemia
RPMI-8226 leukemia = tested on: RPMI-8226 leukemia
RXF 393 renal = tested on: RXF 393 renal
SF-268 CNS = tested on: SF-268 CNS
SF-295 CNS = tested on: SF-295 CNS
SF-539 CNS = tested on: SF-539 CNS
SK-MEL-2 melanoma = tested on: SK-MEL-2 melanoma
SK-MEL-28 melanoma = tested on: SK-MEL-28 melanoma
SK-MEL-5 melanoma = tested on: SK-MEL-5 melanoma
SK-OV-3 ovarian = tested on: SK-OV-3 ovarian
SN12C renal = tested on: SN12C renal
SN12K1 renal = tested on: SN12K1 renal
SNB-19 CNS = tested on: SNB-19 CNS
SNB-75 CNS = tested on: SNB-75 CNS
SNB-78 CNS = tested on: SNB-78 CNS
SW-620 colon = tested on: SW-620 colon
U251 CNS = tested on: U251 CNS
UACC-257 melanoma = tested on: UACC-257 melanoma
UACC-62 melanoma = tested on: UACC-62 melanoma
UO-31 renal = tested on: UO-31 renal
XF 498 CNS = tested on: XF 498 CNS

COc1ccc(Cc2nn(C3OC(COC(C)=O)C(OC(C)=O)C(OC(C)=O)C3OC(C)=O)c(=S)n(-c3ccc(OC)cc3)c2=O)cc1 (stereo unspecified)
TGI (A498 renal): > 100 µM
TGI (A549 NSCLC): > 100 µM
TGI (CAKI-1 renal): > 100 µM
TGI (CCRF-CEM leukemia): > 100 µM
TGI (COLO 205 colon): > 100 µM
TGI (DLD-1 colon): > 100 µM
TGI (DMS 273 small cell lung): > 100 µM
TGI (EKVX NSCLC): > 100 µM
TGI (HCC-2998 colon): > 100 µM
TGI (HCT-116 colon): > 100 µM
TGI (HCT-15 colon): > 100 µM
TGI (HL-60(TB) leukemia): > 100 µM
TGI (HOP-18 NSCLC): > 100 µM
TGI (HOP-62 NSCLC): > 100 µM
TGI (HOP-92 NSCLC): > 100 µM
TGI (HT29 colon): > 100 µM
TGI (IGROV1 ovarian): > 100 µM
TGI (K-562 leukemia): > 100 µM
TGI (KM12 colon): > 100 µM
TGI (KM20L2 colon): > 100 µM
TGI (LOX IMVI melanoma): > 100 µM
TGI (M19-MEL melanoma): > 100 µM
TGI (MALME-3M melanoma): > 100 µM
TGI (MCF7 breast): > 100 µM
TGI (MOLT-4 leukemia): > 100 µM
TGI (NCI-H226 lung): > 100 µM
TGI (NCI-H23 lung): > 100 µM
TGI (NCI-H460 lung): > 100 µM
TGI (NCI-H522 lung): > 100 µM
TGI (NCI/ADR-RES ovarian): > 100 µM
TGI (OVCAR-3 ovarian): > 100 µM
TGI (OVCAR-4 ovarian): > 100 µM
TGI (OVCAR-5 ovarian): > 100 µM
TGI (OVCAR-8 ovarian): > 100 µM
TGI (P388 leukemia): > 100 µM
TGI (P388/ADR leukemia): > 100 µM
TGI (RPMI-8226 leukemia): > 100 µM
TGI (RXF 393 renal): > 100 µM
TGI (SF-268 CNS): > 100 µM
TGI (SF-295 CNS): > 100 µM
TGI (SF-539 CNS): > 100 µM
TGI (SK-MEL-2 melanoma): > 100 µM
TGI (SK-MEL-28 melanoma): > 100 µM
TGI (SK-MEL-5 melanoma): > 100 µM
TGI (SK-OV-3 ovarian): > 100 µM
TGI (SN12C renal): > 100 µM
TGI (SN12K1 renal): > 100 µM
TGI (SNB-19 CNS): > 100 µM
TGI (SNB-75 CNS): > 92.2 µM
TGI (SNB-78 CNS): > 100 µM
TGI (SW-620 colon): > 100 µM
TGI (U251 CNS): > 100 µM
TGI (UACC-257 melanoma): > 100 µM
TGI (UACC-62 melanoma): > 100 µM
TGI (UO-31 renal): > 100 µM
TGI (XF 498 CNS): > 100 µM
